Laboratory results reported in paper PMC8466754, “Esterase-Sensitive Prodrugs of a Potent Bisubstrate Inhibitor of Nicotinamide N-Methyltransferase (NNMT) Display Cellular Activity” (Biomolecules, 2021).

Key:
[1] = Ester stability assay in buffer (RP-HPLC); assay type: physicochemical; conditions: for percentage of compound peak area present after 16 h of incubation, PBS: PBS buffer pH 7.4, 16 h; for percentage of compound peak area present after 16 h of incubation, PBS / percentage of compound peak area present after 16 h of incubation, Tris: room temperature, 1 mM compound; for hydrolytic stability in buffer (in words): PBS pH 7.4 and Tris pH 8.4, over 16 h; for percentage of compound peak area present after 16 h of incubation, Tris: Tris buffer pH 8.4, 16 h
Experimental: The prodrugs were evaluated for their stability in both PBS buffer at pH 7.4 and Tris buffer at pH 8.4. The compounds were dissolved in DMSO at a concentration of 40 mM and diluted with the respective buffer to a final concentration of 1 mM. Compounds were tested directly (t0) and subsequently every 2 h over a time period of 16 h by HPLC. Compounds were eluted from a Dr. Maisch ReproSil-Pur C18 column (4.6 × 250 mm, 10 μm particle size, Dr. Maisch, Ammerbuch-Entringen, Germany) with the following solvent system at a flow rate of 0.5 mL/min: solvent A, 0.1% trifluoroacetic acid in water/acetonitrile (95:5); solvent B, 0.1% trifluoroacetic acid in water/acetonitrile (5:95). Gradient elution was as follows: 100:0 (A/B) to 0:100 (A/B) over 8 min, 0:100 (A/B) for 1 min, then reversion back to 100:0 (A/B) over 1 min, 100:0 (A/B) for 2 min. The formation of the parent compound was evaluated and normalized by measuring the peak area at 214 nm and comparing it to the initial timepoint.
All prodrugs prepared were first tested for their inhibitory activity against NNMT using a biochemical enzymatic activity assay. […] Both these buffers and pHs have been used in the different biochemical and cellular assays described in this report. Compounds were dissolved in DMSO at a concentration of 40 mM and diluted with the respective buffer to a final concentration of 1 mM. Compound stability was then assessed by RP-HPLC directly (t0) and subsequently every 2 h over a time period of 16 h. […] Even for the rather labile methyl ester 12b, the TML group in 14b results in a decrease in hydrolysis of the methyl ester.

NNMT [2] = molecular target: T1, NNMT (Homo sapiens, UniProt P40261); experiment: 1-Methylnicotinamide (MNA) quantification in A549 cells (LC-MS); conditions: A549 lung carcinoma cells; 0.1–100 µM; 24-h treatment (Figure 4)
T1 sequence (P40261 1-264): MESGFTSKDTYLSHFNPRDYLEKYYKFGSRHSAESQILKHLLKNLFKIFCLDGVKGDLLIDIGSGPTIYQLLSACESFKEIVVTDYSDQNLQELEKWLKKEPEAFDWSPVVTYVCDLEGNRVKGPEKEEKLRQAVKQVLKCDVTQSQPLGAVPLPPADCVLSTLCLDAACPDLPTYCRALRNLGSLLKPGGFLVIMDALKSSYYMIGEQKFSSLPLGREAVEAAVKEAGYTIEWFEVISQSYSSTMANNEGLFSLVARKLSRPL
Experimental: Human lung adenocarcinoma line (A549, ATCC, Manassas, VA, USA) was cultured according to the provider’s indications and seeded in 6-well format. […] After incubation, effluent samples were taken and frozen (−80 °C) for further MNA measurement. Cells also were collected, centrifuged (2 × 500 G/5 min.), and frozen both for the measurement of intracellular MNA and for BCA protein assay.
The quantification of 1-methylnicotinamide (MNA), nicotinamide (NA), nicotinic acid (NicA), 1-methyl-2-pyridone-5-carboxamide (Met-2Pyr), and 1-methyl-4-pyridone-5-carboxamide (Met-4Pyr) was performed by applying ultra-high pressure liquid chromatography coupled to tandem mass spectrometry (UPLC-MS) according to the methodology previously described with minor modifications [35]. A UPLC-MS system comprised of a UPLC Ultimate 3000 (Dionex, Thermo Scientific, Waltham, MA, USA) connected to a TSQ Quantum Ultra mass spectrometer (Thermo Scientific, Waltham, MA, USA) equipped with a heated electrospray ionization interface (HESI-II Probe, Waltham, MA, USA) was used. Chromatographic separation of analytes was carried out on an Aquasil C18 analytical column (4.6 mm × 150 mm, 5 mm; Thermo Scientific, Waltham, MA, USA) under isocratic elution using acetonitrile with 0.1% of formic acid (A) and 5 mM ammonium formate in water (B) as mobile phases delivered at the flow rate of 0.8 mL/min (A:B, 80:20, v/v). The cell pellet was resuspended in 60 µL of deionized water and 50 µL of suspension was transferred to a fresh test tube. An amount of 50 µL of effluent sample was used for the measurement of extracellular MNA. The internal standard (IS) containing MNA-d3 was added to each sample (5 µL) obtaining the final concentration of 500 ng/mL. After the sample mixing, the proteins were precipitated using 100 μL of acidified acetonitrile (0.1% of formic acid), and samples were mixed (10 min), cooled at 4 °C (15 min), and finally centrifuged (15,000× g, 15 min, 4 °C). A clear supernatant was transferred to a chromatographic vial and directly injected (5 µL) into UPLC-MS system. […] The concentration of MNA was calculated based on the calibration curve plotted for the analyte as the relationship between the peak area ratios of analyte/IS to the nominal concentration of the analyte. The concentration of analytes was normalized to milligram of proteins, which was assessed using a Pierce^TM BCA Protein Assay Kit (Thermo Fisher, Waltham, MA, USA) and a Synergy4 multiplate reader (BioTek, Winooski, VT, USA). […]
Using this assay, the levels of MNA produced by NNMT in an A549 lung carcinoma cell line can be quantified by means of a sensitive LC-MS method.

[3] = test system: A549 human lung cancer line; experiment: MTT cell viability assay, A549; assay type: cell-based
Experimental: (§1) HSC-2 human oral cancer cell line, T24 human bladder cancer cell line, and A549 human lung cancer line were cultured in DMEM/F12 medium and supplemented with 10% fetal bovine serum and 50 μg/mL gentamicin at 37 °C in a humidified 5% CO2 incubator. For each compound tested, powder was dissolved in DMSO at 100 mM concentration. This stock solution was then diluted in culture medium to final concentration values ranging between 1 µM and 100 µM. For each sample, DMSO was kept constant at 0.1% final concentration. The day before starting treatment, cells were seeded in 96-well plates, at a density of 2000 cells/well. Cells were allowed to attach overnight and then incubated with compounds at different concentrations, or with DMSO only, for 24, 48, and 72 h. All experiments were performed in triplicate.
(§2) Cell proliferation was determined using a colorimetric assay with 3-(4,5-dimethylthiazol-2-yl)-2,5-diphenyl tetrazolium bromide (MTT). The MTT assay measures the conversion of MTT to insoluble formazan by dehydrogenase enzymes of the intact mitochondria of living cells. Cell proliferation was evaluated by measuring the conversion of the tetrazolium salt MTT to formazan crystals upon treatment with compounds or DMSO only for 24, 48, and 72 h. Briefly, cells were incubated for 2 h at 37 °C with 100 µL fresh culture medium containing 5 µL of MTT reagent (5 mg/mL in PBS). The medium was removed and 200 µL isopropanol were added. The amount of formazan crystals formed correlated directly with the number of viable cells. The reaction product was quantified by measuring the absorbance at 540 nm using a plate reader. Experiments were repeated three times. Results were expressed as a percentage of the control (the control equals 100% and corresponds to the absorbance value of each sample at time zero) and presented as mean values ± standard deviation of three independent experiments performed in triplicate.

[4] = test system: HSC-2 human oral cancer cell line; experiment: MTT cell viability assay, HSC-2; assay type: cell-based
Experimental: as §1, §2

pig liver esterase (PLE) = experiment: Esterase-mediated hydrolysis to the parent compound (RP-HPLC); assay type: in vitro ADME
Experimental: The conversion of the prodrugs to the parent compound by esterases was evaluated using pig liver esterase (PLE, 18 U/mg, Sigma-Aldrich, St. Louis, MO, USA) in PBS at pH 7.4. Compounds were dissolved in DMSO at 40 mM, diluted to a final concentration of 2 mM with PBS, and added to an equal volume of a 10 mg/mL solution of PLE in PBS (pH 7.4), resulting in final concentrations of 2.5% DMSO, 1 mM compound, and 5 mg/mL PLE. At different time-points 50 µL aliquots were taken, added to 100 µL acetonitrile to precipitate the proteins, and centrifuged for 5 min at 10,000 rpm. The supernatant was subsequently analyzed by HPLC as described in Section 2.2 above.
The next step was to establish whether compounds 12e and 14e are converted to the parent compound in the presence of an esterase.

[5] = test system: T24 human bladder cancer cell line; experiment: MTT cell viability assay, T24; assay type: cell-based
Experimental: as §1, §2

[6] = Aqueous solubility (observation); assay type: physicochemical
human cancer cell lines = test system: human cancer cell lines; design: method as in PMID 34424711; conditions: range of human cancer cell lines; highest concentration tested 100 µM; cited from earlier work
NNMT [7] = molecular target: T1, NNMT; experiment: Cellular MNA in HMEC-1 cells (Figure S1); assay type: cell-based; design: concentrations in endothelial HMEC-1 cells after 24-hour incubation; endogenous in cells; host or cells: HMEC-1 endothelial cells; conditions: 10 µM, 24-hour incubation
Experimental: The following are available online at https://www.mdpi.com/article/10.3390/biom11091357/s1, Figure S1: cellular MNA data in HMEc-1 cells treated with 10 µM reference inhibitors or prodrugs; ^1H and ^13C NMR spectra of compounds 3e, 4c–e, 8a, 11b–f, 12b–f, 13a–c, 13e, 14a–f.
Figure S1. 1-methylnicotinamide (MNA) concentrations in endothelial HMEC-1 cells after 24-hour incubation
with 10 µM of reference compounds 5-amino-methylquinolinium (5-MQ), 6-methylamino-nicotinamide (6-
MANA), parent compound GYZ-319 or prodrug compounds 12b-f and 14a-e. […]

SMILES | percentage of compound peak area present after 16 h of incubation, PBS [1] [%] | hydrolytic stability in buffer (in words) [1] | percentage of compound peak area present after 16 h of incubation, Tris [1] [%] | effect on cellular MNA levels (NNMT [2]) | effect on cell viability (MTT) ([3]; 100 µM, 24, 48 and 72 h) | effect on cell viability (MTT) ([3]; 1 and 10 µM, 24, 48 and 72 h) | effect on cell viability (MTT) ([4]; 100 µM, 24, 48 and 72 h) | effect on cell viability (MTT) ([4]; 1 and 10 µM, 24, 48 and 72 h) | time to full conversion to the parent compound (pig liver esterase (PLE); 5 mg/mL PLE, PBS pH 7.4, 1 mM compound) [h] | hydrolysis in the absence of PLE (pig liver esterase (PLE); PBS pH 7.4, without PLE) | effect on cell viability (MTT) ([5]; 100 µM, 24, 48 and 72 h) | effect on cell viability (MTT) ([5]; 1 and 10 µM, 24, 48 and 72 h) | aqueous solubility [6] | antiproliferative effects (human cancer cell lines) | cellular activity (MNA concentration) compared to parent compound (NNMT [7])
CC(C)OC(=O)[C@@H](N)CCN(C/C=C/c1ccc(C#N)cc1)C[C@H]1O[C@@H](n2cnc3c(N)ncnc32)[C@H](O)[C@@H]1O [Compound 12e, Isopropyl-(S)-2-amino-4-((((2R,3S,4R,5R)-5-(6-amino-9H-purin-9-yl)-3,4-dihydroxytetrahydrofuran-2-yl)methyl)((E)-3-(4-cyanophenyl)allyl)amino)butanoate] | 98.59 | most stable | 93.70 | clear and significant decrease in MNA levels | effect comparable to GYZ-319 | no effects | effect comparable to GYZ-319 | no effects | ≤ 4 | no hydrolysis was observed | effect comparable to GYZ-319 | no effects | – | – | –
CC(=O)Oc1cc(C)cc(C)c1C(C)(C)CC(=O)N[C@@H](CCN(C/C=C/c1ccc(C#N)cc1)C[C@H]1O[C@@H](n2cnc3c(N)ncnc32)[C@H](O)[C@@H]1O)C(=O)OCc1ccccc1 [Compound 14f, Benzyl-(S)-2-(3-(2-acetoxy-4,6-dimethylphenyl)-3-methylbutanamido)-4-((((2R,3S,4R,5R)-5-(6-amino-9H-purin-9-yl)-3,4-dihydroxytetrahydrofuran-2-yl)methyl)((E)-3-(4-cyanophenyl)allyl)amino)butanoate] | – | – | – | – | – | – | – | – | – | – | – | – | poor aqueous solubility | – | –
N#Cc1ccc(/C=C/CN(CC[C@H](N)C(=O)O)C[C@H]2O[C@@H](n3cnc4c(N)ncnc43)[C@H](O)[C@@H]2O)cc1 [GYZ-319] | – | – | – | high concentrations of both 6-MANA and GYZ-319 are required to substantially decrease the levels of MNA | – | no effects | – | no effects | – | – | – | no effects | – | only showed significant antiproliferative effects at the highest concentration tested of 100 µM | –
CC(=O)Oc1cc(C)cc(C)c1C(C)(C)CC(=O)N[C@@H](CCN(C/C=C/c1ccc(C#N)cc1)C[C@H]1O[C@@H](n2cnc3c(N)ncnc32)[C@H](O)[C@@H]1O)C(=O)O [Compound 14a, (S)-2-(3-(2-acetoxy-4,6-dimethylphenyl)-3-methylbutanamido)-4-((((2R,3S,4R,5R)-5-(6-amino-9H-purin-9-yl)-3,4-dihydroxytetrahydrofuran-2-yl)methyl)((E)-3-(4-cyanophenyl)allyl)amino)butanoic acid] | 99.10 | most stable | 93.97 | – | – | – | – | – | – | – | – | – | – | – | not to improve the cellular activity of the parent compound
